Source: patent EP4818157A1, “N-SUBSTITUTED CYCLIC AMIDE COMPOUND” (Kissei Pharmaceutical Co., Ltd., priority 2023, dated 2025)
Like-named read-outs stand apart in the source and are kept apart here.

Key:
TSHR = molecular target: T1, TSHR (Mus musculus, UniProt P47750); settings: cited from earlier work
T1 construct: host or cells: mouse, in vivo (TRH- or M22-administered)

human TSHR = molecular target: T2, human TSHR (Homo sapiens, UniProt P16473); experiment: Measurement of antagonist activity using TSH-induced cAMP production in human TSHR-stably expressing CHO cells; assay type: cell-based; settings: human TSH final concentration 50 ng/mL
T2 construct: expressed in transfected cells
Outline: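 CHO cells stably expressing human TSHR, in HBSS/20 mM HEPES/1 mM IBMX, pre-incubated with compound 15 min at room temperature, then stimulated 1 h at 37°C with human TSH (50 ng/mL final). cAMP measured by HTRF (665/620 nm), expressed as % of control; IC50 from concentration-response.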

T2 sequence (P16473 21-764): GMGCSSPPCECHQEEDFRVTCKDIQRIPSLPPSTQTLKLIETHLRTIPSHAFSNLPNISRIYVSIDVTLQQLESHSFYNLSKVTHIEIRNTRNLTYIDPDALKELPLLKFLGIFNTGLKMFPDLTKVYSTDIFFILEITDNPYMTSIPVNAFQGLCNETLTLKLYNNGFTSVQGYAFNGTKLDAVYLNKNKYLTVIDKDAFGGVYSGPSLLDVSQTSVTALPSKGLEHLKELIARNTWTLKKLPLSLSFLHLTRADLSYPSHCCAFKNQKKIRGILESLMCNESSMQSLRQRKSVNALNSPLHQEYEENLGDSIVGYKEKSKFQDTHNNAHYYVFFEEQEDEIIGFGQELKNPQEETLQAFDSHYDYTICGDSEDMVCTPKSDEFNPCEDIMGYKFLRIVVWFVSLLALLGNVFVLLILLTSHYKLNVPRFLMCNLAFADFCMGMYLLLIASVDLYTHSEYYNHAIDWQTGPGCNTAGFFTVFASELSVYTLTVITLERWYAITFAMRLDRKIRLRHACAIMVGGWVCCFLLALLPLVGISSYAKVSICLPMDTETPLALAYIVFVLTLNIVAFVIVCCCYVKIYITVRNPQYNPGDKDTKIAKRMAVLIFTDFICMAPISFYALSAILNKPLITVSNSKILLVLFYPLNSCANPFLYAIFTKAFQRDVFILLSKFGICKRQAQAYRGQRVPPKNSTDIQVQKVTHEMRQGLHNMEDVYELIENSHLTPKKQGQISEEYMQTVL
T1 sequence (P47750 22-764): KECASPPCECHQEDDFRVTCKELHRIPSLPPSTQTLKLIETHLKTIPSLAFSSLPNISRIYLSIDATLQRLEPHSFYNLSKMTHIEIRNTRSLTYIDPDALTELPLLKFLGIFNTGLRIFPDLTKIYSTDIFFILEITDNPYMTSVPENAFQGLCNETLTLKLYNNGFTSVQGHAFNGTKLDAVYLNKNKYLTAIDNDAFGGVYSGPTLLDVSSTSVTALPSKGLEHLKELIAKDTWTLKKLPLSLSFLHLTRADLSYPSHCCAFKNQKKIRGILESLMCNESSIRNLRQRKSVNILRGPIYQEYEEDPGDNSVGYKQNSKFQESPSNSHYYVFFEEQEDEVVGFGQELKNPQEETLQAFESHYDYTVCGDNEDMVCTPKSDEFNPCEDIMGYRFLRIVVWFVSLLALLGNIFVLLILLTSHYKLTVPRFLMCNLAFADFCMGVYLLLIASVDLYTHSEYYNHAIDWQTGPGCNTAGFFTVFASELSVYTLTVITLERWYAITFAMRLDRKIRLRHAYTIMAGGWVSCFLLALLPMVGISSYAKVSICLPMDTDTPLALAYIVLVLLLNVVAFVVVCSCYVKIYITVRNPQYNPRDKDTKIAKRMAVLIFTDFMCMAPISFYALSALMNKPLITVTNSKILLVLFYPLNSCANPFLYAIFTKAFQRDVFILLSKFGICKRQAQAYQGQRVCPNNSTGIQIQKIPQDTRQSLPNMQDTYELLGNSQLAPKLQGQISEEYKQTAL

IC50 (human TSHR)	SMILES	blood T4 concentration (TSHR; TSH-releasing hormone (TRH)-administered mouse)	blood T4 concentration (TSHR; thyroid-stimulating antibody (M22)-administered mouse)
–	COc1ccc(C2Nc3ccccc3C(=O)N2Cc2ccco2)cc1COc1c(C)cc(NC(C)=O)cc1C (centres unmarked) [NCGC00242364]	lowering a blood T4 concentration	lowering a blood T4 concentration
3 to 30 µM	Cc1cccc(CN2C(=O)[C@H](NC(N)=O)Cc3ccccc32)c1 [Example C-1, (R)-1-(1-(3-methylbenzyl)-2-oxo-1,2,3,4-tetrahydroquinolin-3-yl)urea]	–	–
< 3 µM	CN(C)Cc1ccc(NC(N)=O)c(=O)n1Cc1cc(C(F)(F)F)cc(Cl)c1F [Example E-3, 1-(1-(3-chloro-2-fluoro-5-(trifluoromethyl)benzyl)-6-((dimethylamino)methyl)-2-oxo-1,2-dihydropyridin-3-yl)urea]	–	–
> 30 µM	NC(=O)N[C@@H]1Cc2ccccc2N(CC2CCCCC2)C1=O [Example C-27, (R)-1-(1-(cyclohexylmethyl)-2-oxo-1,2,3,4-tetrahydroquinolin-3-yl)urea]	–	–
3 to 30 µM	CC(=O)N[C@@H]1CC[C@@H](C(F)F)N(Cc2cc(C(F)(F)F)ccc2F)C1=O [Example A-27, N-((3R,6S)-6-(difluoromethyl)-1-(2-fluoro-5-(trifluoromethyl)benzyl)-2-oxopiperidin-3-yl)acetamide]	–	–
< 3 µM	C=CCc1ccc(F)c(CN2C(=O)[C@H](NC(N)=O)CC[C@H]2C(F)(F)F)c1 [Example D-1, 1-((3R,6S)-1-(5-allyl-2-fluorobenzyl)-2-oxo-6-(trifluoromethyl)piperidin-3-yl)urea]	–	–
< 3 µM	NC(=O)N[C@@H]1Cc2sccc2N(Cc2cc(C(F)(F)F)ccc2F)C1=O [Example F-5, (R)-1-(4-(2-fluoro-5-(trifluoromethyl)benzyl)-5-oxo-4,5,6,7-tetrahydrothieno[3,2-b]pyridin-6-yl)urea]	–	–
